These results are taken from patent US20250270200A1, “CTPS1 INHIBITORS AND USES THEREOF” (Nimbus Clotho, Inc., priority 2022, published 2025).

Structures can show the parent of a compound that is named as a salt.

The experiment concerns the target T1, human CTPS1 (Homo sapiens, UniProt P17812).
T1 sequence (P17812 1-591): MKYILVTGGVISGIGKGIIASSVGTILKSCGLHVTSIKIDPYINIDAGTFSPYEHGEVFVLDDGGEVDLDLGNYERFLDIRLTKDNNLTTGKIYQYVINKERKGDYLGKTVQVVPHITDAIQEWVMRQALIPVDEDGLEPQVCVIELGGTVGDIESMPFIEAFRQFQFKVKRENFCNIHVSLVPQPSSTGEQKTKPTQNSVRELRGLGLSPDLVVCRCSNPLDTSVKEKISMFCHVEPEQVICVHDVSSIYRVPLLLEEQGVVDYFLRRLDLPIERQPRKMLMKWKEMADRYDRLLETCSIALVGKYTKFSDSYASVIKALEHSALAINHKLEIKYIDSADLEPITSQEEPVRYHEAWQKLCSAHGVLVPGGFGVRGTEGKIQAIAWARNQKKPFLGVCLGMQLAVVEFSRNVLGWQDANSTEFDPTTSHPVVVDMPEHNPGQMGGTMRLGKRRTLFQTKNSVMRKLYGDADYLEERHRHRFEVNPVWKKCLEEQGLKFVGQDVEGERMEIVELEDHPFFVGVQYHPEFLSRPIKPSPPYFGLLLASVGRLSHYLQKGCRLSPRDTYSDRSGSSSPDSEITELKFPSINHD
Put plainly: ADP-Glo assay, human CTPS1 enzyme inhibition. The conditions noted are these: wild-type human CTPS1, 25 nM enzyme; ADP-Glo; read-out: ADP-Glo_WT_hCTPS1—25 nM_IC50 (IC50). It is filed as biochemical. The method, boiled down: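 Full-length tagged human CTPS1 (25 nM) pre-incubated 10 min at 25° C with compound, then 10 min with ATP (120 μM) and UTP (160 μM); reaction started with L-glutamine (100 μM) and GTP (60 μM), 1% DMSO, in HEPES pH 7.4, 10 mM Mg2+, 5 mM KCl, 2 mM DTT. Run within linear phase at 25° C; ADP measured by ADP-Glo luminescence.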
(ADP-Glo turns the ADP formed in a reaction into a luminescent signal.)

Broadly, the IC50 is the concentration that inhibits the measured activity by half.

Turning to `CCOc1cncc(-c2cnc(C(=O)N[C@H](c3cccc(NS(=O)(=O)C(F)F)c3)[C@@H]3COCCO3)s2)n1` [I-199, N-((R)-(3-((difluoromethyl)sulfonamido)phenyl)((R)-1,4-dioxan-2-yl)methyl)-5-(6-ethoxypyrazin-2-yl)thiazole-2-carboxamide], the 50% inhibitory concentration (IC50) was 5 to 25 nM.
As to `CCOc1cncc(-c2cnc(C(=O)N[C@@H](c3cccc(NS(=O)(=O)C(F)F)c3)[C@@H]3COCCO3)s2)n1` [I-200, N-((S)-(3-((difluoromethyl)sulfonamido)phenyl)((R)-1,4-dioxan-2-yl)methyl)-5-(6-ethoxypyrazin-2-yl)thiazole-2-carboxamide], the IC50 was in the range of 5 to 25 nM.
The result for `CCOc1cncc(-c2cnc(C(=O)N[C@@H](c3cccc(NS(=O)(=O)C(F)F)c3)[C@H]3COCCO3)s2)n1` [I-201, N-((S)-(3-((difluoromethyl)sulfonamido)phenyl)((S)-1,4-dioxan-2-yl)methyl)-5-(6-ethoxypyrazin-2-yl)thiazole-2-carboxamide] reads 5 to 25 nM; that for `CCOc1cncc(-c2cnc(C(=O)N[C@]3(c4cccc(NS(=O)(=O)C(F)F)c4)C[C@H](O)C3)s2)n1` [I-202, N-((1s,3s)-1-(3-((difluoromethyl)sulfonamido)phenyl)-3-hydroxycyclobutyl)-5-(6-ethoxypyrazin-2-yl)thiazole-2-carboxamide], 5 to 25 nM; that for `CCOc1cncc(-c2cnc(C(=O)N[C@]3(c4cccc(NS(=O)(=O)C(F)F)c4)C[C@@H](O)C3)s2)n1` [I-203, N-((1r,3r)-1-(3-((difluoromethyl)sulfonamido)phenyl)-3-hydroxycyclobutyl)-5-(6-ethoxypyrazin-2-yl)thiazole-2-carboxamide], 5 to 25 nM.
The result for `CCOc1cncc(-c2cnc(C(=O)N[C@@H](CN3C[C@H]4C[C@@H]3CO4)c3cccc(NS(=O)(=O)C(F)F)c3)s2)n1` [I-204, N-((R)-2-((1R,4R)-2-oxa-5-azabicyclo[2.2.1]heptan-5-yl)-1-(3-((difluoromethyl)sulfonamido)phenyl)ethyl)-5-(6-ethoxypyrazin-2-yl)thiazole-2-carboxamide] reads 5 to 25 nM; that for `CCOc1cncc(-c2cnc(C(=O)N[C@H](CN3C[C@H]4C[C@@H]3CO4)c3cccc(NS(=O)(=O)C(F)F)c3)s2)n1` [I-205, N-((S)-2-((1R,4R)-2-oxa-5-azabicyclo[2.2.1]heptan-5-yl)-1-(3-((difluoromethyl)sulfonamido)phenyl)ethyl)-5-(6-ethoxypyrazin-2-yl)thiazole-2-carboxamide, formic acid salt], 25 to 50 nM; that for `CCOc1cncc(-c2cnc(C(=O)N[C@@H](CN3CC[C@@](C)(O)C3)c3cccc(NS(=O)(=O)C(F)F)c3)s2)n1` [I-206, N-((R)-1-(3-((difluoromethyl)sulfonamido)phenyl)-2-((R)-3-hydroxy-3-methylpyrrolidin-1-yl)ethyl)-5-(6-ethoxypyrazin-2-yl)thiazole-2-carboxamide], 5 to 25 nM.
With `CCOc1cncc(-c2cnc(C(=O)N[C@H](CN3CC[C@@](C)(O)C3)c3cccc(NS(=O)(=O)C(F)F)c3)s2)n1` [I-207, N-((S)-1-(3-((difluoromethyl)sulfonamido)phenyl)-2-((R)-3-hydroxy-3-methylpyrrolidin-1-yl)ethyl)-5-(6-ethoxypyrazin-2-yl)thiazole-2-carboxamide] the figure was 25 to 50 nM; with `CCOc1cncc(-c2cnc(C(=O)N[C@H](CN3CC[C@](C)(O)C3)c3cccc(NS(=O)(=O)C(F)F)c3)s2)n1` [I-208, N-((S)-1-(3-((difluoromethyl)sulfonamido)phenyl)-2-((S)-3-hydroxy-3-methylpyrrolidin-1-yl)ethyl)-5-(6-ethoxypyrazin-2-yl)thiazole-2-carboxamide, formic acid salt], 5 to 25 nM.
`CCOc1cncc(-c2cnc(C(=O)N[C@@H](CN3CC[C@](C)(O)C3)c3cccc(NS(=O)(=O)C(F)F)c3)s2)n1` [I-209, N-((R)-1-(3-((difluoromethyl)sulfonamido)phenyl)-2-((S)-3-hydroxy-3-methylpyrrolidin-1-yl)ethyl)-5-(6-ethoxypyrazin-2-yl)thiazole-2-carboxamide, formic acid salt]: the IC50 lay within 5 to 25 nM.
Consider `CCOc1cncc(-c2cnc(C(=O)N[C@@H](CN3C[C@H]4CC[C@@H]3C4)c3cccc(NS(=O)(=O)C(F)F)c3)s2)n1` [I-210, N-((R)-2-((1R,4S)-2-azabicyclo[2.2.1]heptan-2-yl)-1-(3-((difluoromethyl)sulfonamido)phenyl)ethyl)-5-(6-ethoxypyrazin-2-yl)thiazole-2-carboxamide], for which the IC50 lay within 5 to 25 nM.
Regarding `CCOc1cncc(-c2cnc(C(=O)N[C@H](CN3C[C@H]4CC[C@@H]3C4)c3cccc(NS(=O)(=O)C(F)F)c3)s2)n1` [I-211, N-((S)-2-((1R,4S)-2-azabicyclo[2.2.1]heptan-2-yl)-1-(3-((difluoromethyl)sulfonamido)phenyl)ethyl)-5-(6-ethoxypyrazin-2-yl)thiazole-2-carboxamide], the IC50 was in the range of 50 to 100 nM.
With `CCOc1cncc(-c2cnc(C(=O)N[C@@H](CN(C)C)c3cccc(NS(=O)(=O)C(F)F)c3)s2)n1` [I-212, (R)-N-(1-(3-((difluoromethyl)sulfonamido)phenyl)-2-(dimethylamino)ethyl)-5-(6-ethoxypyrazin-2-yl)thiazole-2-carboxamide] the figure was 25 to 50 nM.
As for `CCOc1cncc(-c2cnc(C(=O)N[C@H](CN(C)C)c3cccc(NS(=O)(=O)C(F)F)c3)s2)n1` [I-213, (S)-N-(1-(3-((difluoromethyl)sulfonamido)phenyl)-2-(dimethylamino)ethyl)-5-(6-ethoxypyrazin-2-yl)thiazole-2-carboxamide], the IC50 is 5 to 25 nM.
`CCOc1cncc(-c2cnc(C(=O)N[C@@H](Cn3ccnn3)c3cccc(NS(=O)(=O)C(F)F)c3)s2)n1` [I-214, (R)-N-(1-(3-((difluoromethyl)sulfonamido)phenyl)-2-(1H-1,2,3-triazol-1-yl)ethyl)-5-(6-ethoxypyrazin-2-yl)thiazole-2-carboxamide]: the IC50 fell in the range of 5 to 25 nM.
Consider `CCOc1cncc(-c2cnc(C(=O)N[C@H](Cn3ccnn3)c3cccc(NS(=O)(=O)C(F)F)c3)s2)n1` [I-215, (S)-N-(1-(3-((difluoromethyl)sulfonamido)phenyl)-2-(1H-1,2,3-triazol-1-yl)ethyl)-5-(6-ethoxypyrazin-2-yl)thiazole-2-carboxamide], for which the IC50 is 5 to 25 nM.
The result for `CCOc1cncc(-c2cnc(C(=O)N[C@H](Cn3nccn3)c3cccc(NS(=O)(=O)C(F)F)c3)s2)n1` [I-216, (S)-N-(1-(3-((difluoromethyl)sulfonamido)phenyl)-2-(2H-1,2,3-triazol-2-yl)ethyl)-5-(6-ethoxypyrazin-2-yl)thiazole-2-carboxamide] reads at most 5 nM; that for `CCOc1cncc(-c2cnc(C(=O)N[C@@H](Cn3nccn3)c3cccc(NS(=O)(=O)C(F)F)c3)s2)n1` [I-217, (R)-N-(1-(3-((difluoromethyl)sulfonamido)phenyl)-2-(2H-1,2,3-triazol-2-yl)ethyl)-5-(6-ethoxypyrazin-2-yl)thiazole-2-carboxamide], 5 to 25 nM.
The result for `CCOc1cncc(-c2cnc(C(=O)N[C@H](CN3CCCCC3)c3cccc(NS(=O)(=O)C(F)F)c3)s2)n1` [I-218, (S)-N-(1-(3-((difluoromethyl)sulfonamido)phenyl)-2-(piperidin-1-yl)ethyl)-5-(6-ethoxypyrazin-2-yl)thiazole-2-carboxamide] reads 25 to 50 nM; that for `CCOc1cncc(-c2cnc(C(=O)N[C@@H](CN3CCCCC3)c3cccc(NS(=O)(=O)C(F)F)c3)s2)n1` [I-219, (R)-N-(1-(3-((difluoromethyl)sulfonamido)phenyl)-2-(piperidin-1-yl)ethyl)-5-(6-ethoxypyrazin-2-yl)thiazole-2-carboxamide], 5 to 25 nM.
On to `O=C(N[C@H](CN1CCCC1)c1cccc(NS(=O)(=O)C(F)F)c1)c1ncc(-c2cnn3ccc(Cl)cc23)s1` [I-220, (S)-5-(5-chloropyrazolo[1,5-a]pyridin-3-yl)-N-(1-(3-((difluoromethyl)sulfonamido)phenyl)-2-(pyrrolidin-1-yl)ethyl)thiazole-2-carboxamide], for which the half-inhibitory concentration (IC50) was 25 to 50 nM.
As to `O=C(N[C@@H](CN1CCCC1)c1cccc(NS(=O)(=O)C(F)F)c1)c1ncc(-c2cnn3ccc(Cl)cc23)s1` [I-221, (R)-5-(5-chloropyrazolo[1,5-a]pyridin-3-yl)-N-(1-(3-((difluoromethyl)sulfonamido)phenyl)-2-(pyrrolidin-1-yl)ethyl)thiazole-2-carboxamide], the IC50 lay in the range of 25 to 50 nM.
On to `CCOc1cncc(-c2cnc(C(=O)N[C@@H](c3cccc(NS(=O)(=O)C(F)F)c3)[C@H](C)N3CCOCC3)s2)n1` [I-222, N-((1S,2S)-1-(3-((difluoromethyl)sulfonamido)phenyl)-2-morpholinopropyl)-5-(6-ethoxypyrazin-2-yl)thiazole-2-carboxamide], for which the IC50 lay in the range of 5 to 25 nM.
